Reference: patent US20250163122A1, “COMPOSITIONS AND METHODS FOR TREATING AIRWAY MUCUS DYSFUNCTION” (BOARD OF REGENTS, THE UNIVERSITY OF TEXAS SYSTEM, priority 2022, published 2025)
Bridges are numbered along the chain shown (N, C = ends). [ ]: non-standard residue; d: D form. S5 = C=CCCC[C@](C)(N)C(=O)O

How the values were obtained:
[1] = tested on: Muc5ac secretion from HAECs; experiment: Mucin (Muc5ac) secretion assay in HAECs; assay type: cell-based, human; details: for effect on stimulated secretion / reduction of stimulated (IL-13+ATP) Muc5ac secretion: 10 μM peptide, 30 min pre-incubation, metaplastic conditions; for reduction of stimulated Muc5ac secretion: metaplastic HAECs
Protocol: Cell culture. […] Growth medium was replaced every two days. […] The apical medium was replaced after 48 h.
Mucin secretion assay in HAECs. […] In brief, for the 24 h peptide treatment, 20 μl of DMEM+/−100 μM peptides was added to the apical surface 24 h before stimulation. On the day of the assay, cells were washed 5 times with 100 μl DMEM for 1 h for each wash on the apical side. Apical supernatants were collected after every wash ([…]), then 100 μl of DMEM+/−100 μM peptides was added to the apical surface and HAECs incubated for 15 min before collecting the supernatant (baseline wash). HAECs were then incubated for an additional 15 min with 100 μl DMEM+/−100 μM ATP (Sigma) before collection of supernatants (experimental washes). Following sample collection, cells were lysed in 100 μl of lysis buffer (lysate) containing 50 mM Tris-HCl pH 7.2, 1 mM EDTA, 1 mM EGTA, 1% Triton-X (Sigma), protease inhibitor cOmplete mini EDTA-free and phosphatase inhibitor PhosSTOP (Roche, Germany). The protocol was adapted for 30 min peptide treatment as follows. After wash 5, 100 μl of DMEM+/−10 μM or 100 μM of peptides was added to the apical surface and HAECs incubated for 30 min (baseline wash). HAECs were then incubated for 30 min with 100 μl DMEM+/−100 μM ATP to collect experimental washes.
All samples were diluted 1:10 in PBS (washes and cell lysates) and 50 μl of each sample were vacuum-aspirated onto a 0.45 μm pore nitrocellulose membrane using the Bio-Dot® MicrofiltrationApparatus (Bio-Rad). […] All steps were performed at room temperature. Fluorescent signals were acquired using the Odyssey® Fc Imaging System (Li-Cor®, USA) and quantified using ImageJ (v.2.0.0; NIH, USA). Equal volumes of samples were loaded on the gels for control and peptide treatments. […] Stimulated secretion is therefore normalized to baseline secretion within individual filters to account for filter to filter heterogeneities.

[2] = tested on: airway lumenal mucus in mouse lung; experiment: Airway lumenal mucus accumulation in mice; assay type: in vivo; details: pretreatment, aerosol 200 μM, IL-13 then methacholine
Protocol: To measure airway lumenal mucus content, mucous metaplasia was induced as above, then mucin secretion and bronchoconstriction were induced by exposure for 10 min to an aerosol of 150 mM methacholine. Lungs were harvested and fixed by immersion for 48 h at 4° C. to avoid displacement of lumenal mucus and using methanol-based Carnoy's solution (methacarn) for fixation to minimize changes in mucus volume. A single transverse 5 μm section was taken through the axial bronchus of the left lung between lateral branches 1 and 2 and stained with PAFS as above to evaluate intracellular mucin to ensure secretion had been stimulated. […]
To measure the efficiency of stimulated mucin secretion and the extent of mucus accumulation in the airway lumen of WT mice treated with peptides, the same procedures as those used for analysis of Syt2 mutant mice were followed, except that both outcomes were measured in the same mouse by fixation of the left lung by inflation with formalin to measure mucin secretion and fixation of the right lung by immersion in methacarn to measure mucus accumulation. […] In addition, a MicroSprayer Aerosolizer (Penn-Century) was used for peptide delivery to the airways, secretion was measured in the left axial bronchus at a site 3 mm distal to the site used in the Syt2 mutant mice, and mucus accumulation was measured in the right caudal lobe.

[3] = tested on: fractional secretion of intracellular mucin in mouse airways; experiment: Stimulated mucin secretion in mice (IL-13, then methacholine); assay type: in vivo; details: pretreatment, aerosol 200 μM 30 min before secretagogue, IL-13 mice
Protocol: Mucin secretion and airway mucus occlusion in mice. The efficiency of stimulated mucin secretion and the extent of mucus accumulation in the airway lumen of Syt2 mutant mice were measured as described previously (Jaramillo et al, 2019). Briefly, to increase intracellular mucin content (i.e., induce mucous metaplasia), 3 μg IL-13 (BioLegend) in 40 μl PBS was instilled every other day×3 into the posterior pharynx of mice under isoflurane anesthesia to be aspirated during inhalation. […] Fractional mucin secretion was calculated as the percentage […] mucin content of mice of the same genotype treated only with IL-13. To measure intracellular airway epithelial mucin content, lungs were inflated via the trachea with 10% neutral buffered formalin to 20 cm water pressure for 24 h at 4° C., then embedded in paraffin. […] Images were acquired using an upright microscope (Olympus BX 60) with a ×40 NA 0.75 objective lens, and intracellular mucin was measured around the circumferential section of the axial bronchus using ImagePro (Media Cybernetics). Images were analyzed by investigators blinded to mouse genotype and treatment, and data are presented as the epithelial mucin volume density, signifying the measured volume of mucin overlying a unit area of epithelial baseline lamina. […]

[4] = tested on: mouse airway epithelial cells; experiment: Mucin secretion without secretagogue after peptide aerosol in mice with mucous metaplasia; assay type: in vivo
Protocol: To investigate whether SP9 could have therapeutic benefit in vivo, SP9 conjugated to CPPs and fluorophores was introduced into mouse airways using a microsprayer inserted into the distal trachea under direct visualization with a laryngoscope. […] All subsequent studies of airway mucin secretion were therefore performed in the distal axial bronchus. […] This effect was not observed with the injection of buffer alone.
The peptide solution was injected into the airway under pressure to generate a droplet aerosol. A high concentration of peptides was used in these experiments in part because the solution is expected to be in contact with the airway epithelium only briefly and to mostly end up in the alveolar region.

[5] = target: Syt2 (UniProt P29101 1-422, limits assumed); experiment: cell-based or functional assay
Sequence of Syt2 (P29101 whole entry): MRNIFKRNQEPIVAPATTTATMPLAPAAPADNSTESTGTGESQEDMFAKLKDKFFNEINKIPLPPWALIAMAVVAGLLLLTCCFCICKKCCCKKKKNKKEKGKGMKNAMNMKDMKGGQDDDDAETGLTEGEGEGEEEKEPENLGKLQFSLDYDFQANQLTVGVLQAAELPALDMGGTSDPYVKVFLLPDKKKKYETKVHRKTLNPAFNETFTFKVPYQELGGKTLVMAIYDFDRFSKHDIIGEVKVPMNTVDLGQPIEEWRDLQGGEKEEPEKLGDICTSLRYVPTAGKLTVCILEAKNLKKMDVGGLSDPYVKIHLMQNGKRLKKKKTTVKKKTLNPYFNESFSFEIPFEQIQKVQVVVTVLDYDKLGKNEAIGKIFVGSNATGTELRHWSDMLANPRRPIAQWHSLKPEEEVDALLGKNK

[6] = 100 μM peptide for 24 h before stimulation

Molecule: Ac-EE(S5)KDA(S5)IR(S5)LVM(S5)DEQ-(C/Cy3Mal)-amide (Ac-EE[S5]KDA[S5]IR[S5]LVM[S5]DEQC-NH2; staple 10-14, 3-7; also: Cy3 maleimide on C-terminal Cys) [SP9-Cy3]
- effect on stimulated secretion [1]: no effect
- effect on ATP-stimulated secretion [1, 6]: no effect

Molecule: H2N-GRKKRRQRRRPPQEESKDAGIRTLVMLDEQ-(C/Cy3Mal)-amide (H-GRKKRRQRRRPPQEESKDAGIRTLVMLDEQ-{C(Cy3 maleimide)-NH2}) [TAT-P9-Cy3, non-stapled control peptide with TAT and Cy3, reference compound]
- effect on stimulated secretion [1]: no effect

Molecule: H2N-RQIKIWFQNRRMKWKKEE(S5)KDA(S5)IR(S5)LVM(S5)DEQ-(C/Cy3Mal)-amide [PEN-SP9-Cy3]
- reduction of airway lumenal mucus accumulation in the right lung [2]: 33.1%
- reduction of fractional secretion of intracellular mucin stimulated by methacholine [3]: 82.3%
- mucin secretion of Cy3-labeled cells without a secretagogue (side-effect) ([4]; mouse, in vivo): did not show this problem
- reduction of stimulated (IL-13+ATP) Muc5ac secretion [1]: 48%
- reduction of stimulated Muc5ac secretion [1, 6]: 73%

Molecule: H2N-GRKKRRQRRRPPQEE(S5)KDA(S5)IR(S5)LVM(S5)DEQ-(C/Cy3Mal)-amide (H-GRKKRRQRRRPPQEE[S5]KDA[S5]IR[S5]LVM[S5]DEQ-{C(Cy3 maleimide)-NH2}; staple 16-20, 23-27) [TAT-SP9-Cy3]
- intracellular mucin content of cells that internalize the peptide ([4]; 300 μM aerosolized, left axial bronchus, IL-13 mouse, PAFS): low intracellular mucin content
- mucin secretion after peptide aerosol without secretagogue ([4]; aerosolized 1 mM, left axial bronchus, IL-13 mice): extensive apocrine mucin secretion
- mucin secretion of Cy3-labeled cells without a secretagogue (side-effect) ([4]; peptide introduced into airways of mice with mucous metaplasia): had secreted their mucin stores without stimulation
- reduction of stimulated (IL-13+ATP) Muc5ac secretion [1]: 86%
- reduction of stimulated Muc5ac secretion [1, 6]: 83%

Molecule: H2N-RQIKIWFQNRRMKWKKEESKDAGIRTLVMLDEQ-(C/Cy3Mal)-amide (H-RQIKIWFQNRRMKWKKEESKDAGIRTLVMLDEQ-{C(Cy3 maleimide)-NH2}) [PEN-P9-Cy3, non-stapled control peptide with penetratin and Cy3, reference compound]
- effect on airway lumenal mucus accumulation in the right lung [2]: no effect
- effect on fractional secretion of intracellular mucin stimulated by methacholine [3]: no effect
- effect on stimulated secretion [1]: no effect

B1: SP1 (peptide)
peptide: Ac-SKD[S5]GIR[S5]LVMLDE[S5]GEQ[S5]DR-NH2
modifications: staple 15-19, 4-8
SMILES: CC[C@H](C)[C@@H]1NC(=O)CNC(=O)[C@@](C)(NC(=O)[C@H](CC(=O)O)NC(=O)[C@H](CCCCN)NC(=O)[C@H](CO)NC(C)=O)CCCC=CCCC[C@@](C)(C(=O)N[C@@H](CC(C)C)C(=O)N[C@H](C(=O)N[C@@H](CCSC)C(=O)N[C@@H](CC(C)C)C(=O)N[C@@H](CC(=O)O)C(=O)N[C@@H](CCC(=O)O)C(=O)N[C@@]2(C)CCCC=CCCC[C@@](C)(C(=O)N[C@@H](CC(=O)O)C(=O)N[C@@H](CCCNC(=N)N)C(N)=O)NC(=O)[C@H](CCC(N)=O)NC(=O)[C@H](CCC(=O)O)NC(=O)CNC2=O)C(C)C)NC(=O)[C@H](CCCNC(=N)N)NC1=O
- inhibition of Ca2+-independent fusion probability, single vesicle content mixing with airway epithelial SNAREs and Syt2 [5]: ≤ 40%
- inhibition of Ca2+-triggered cumulative fusion probability, single vesicle content mixing with airway epithelial SNAREs and Syt2 [5]: ≤ 70%

B2: SP4 (peptide)
peptide: Ac-SKDA[S5]IRT[S5]VM[S5]DEQ[S5]EQL-NH2
modifications: staple 12-16, 5-9
SMILES: CC[C@H](C)[C@@H]1NC(=O)[C@@](C)(NC(=O)[C@H](C)NC(=O)[C@H](CC(=O)O)NC(=O)[C@H](CCCCN)NC(=O)[C@H](CO)NC(C)=O)CCCC=CCCC[C@@](C)(C(=O)N[C@H](C(=O)N[C@@H](CCSC)C(=O)N[C@@]2(C)CCCC=CCCC[C@@](C)(C(=O)N[C@@H](CCC(=O)O)C(=O)N[C@@H](CCC(N)=O)C(=O)N[C@@H](CC(C)C)C(N)=O)NC(=O)[C@H](CCC(N)=O)NC(=O)[C@H](CCC(=O)O)NC(=O)[C@H](CC(=O)O)NC2=O)C(C)C)NC(=O)[C@H]([C@@H](C)O)NC(=O)[C@H](CCCNC(=N)N)NC1=O
- inhibition of Ca2+-independent fusion probability, single vesicle content mixing with airway epithelial SNAREs and Syt2 [5]: ≤ 40%
- inhibition of Ca2+-triggered cumulative fusion probability, single vesicle content mixing with airway epithelial SNAREs and Syt2 [5]: ≤ 70%

B3: SP9 (peptide)
peptide: Ac-EE[S5]KDA[S5]IR[S5]LVM[S5]DEQC-NH2
modifications: staple 10-14, 3-7
SMILES: CC[C@H](C)[C@H](NC(=O)[C@]1(C)CCCC=CCCC[C@](C)(NC(=O)[C@H](CCC(=O)O)NC(=O)[C@H](CCC(=O)O)NC(C)=O)C(=O)N[C@@H](CCCCN)C(=O)N[C@@H](CC(=O)O)C(=O)N[C@@H](C)C(=O)N1)C(=O)N[C@@H](CCCNC(=N)N)C(=O)N[C@@]1(C)CCCC=CCCC[C@@](C)(C(=O)N[C@@H](CC(=O)O)C(=O)N[C@@H](CCC(=O)O)C(=O)N[C@@H](CCC(N)=O)C(=O)N[C@@H](CS)C(N)=O)NC(=O)[C@H](CCSC)NC(=O)[C@H](C(C)C)NC(=O)[C@H](CC(C)C)NC1=O
- inhibition of Ca2+-independent fusion probability, single vesicle content mixing with airway epithelial SNAREs and Syt2 [5]: ≤ 40%
- inhibition of Ca2+-triggered cumulative fusion probability, single vesicle content mixing with airway epithelial SNAREs and Syt2 [5]: ≤ 70%

B4: SP10 (peptide)
peptide: Ac-SKD[S5]GIR[S5]LV[S5]LDE[S5]GEQL-NH2
modifications: staple 11-15, 4-8
SMILES: CC[C@H](C)[C@@H]1NC(=O)CNC(=O)[C@@](C)(NC(=O)[C@H](CC(=O)O)NC(=O)[C@H](CCCCN)NC(=O)[C@H](CO)NC(C)=O)CCCC=CCCC[C@@](C)(C(=O)N[C@@H](CC(C)C)C(=O)N[C@H](C(=O)N[C@@]2(C)CCCC=CCCC[C@@](C)(C(=O)NCC(=O)N[C@@H](CCC(=O)O)C(=O)N[C@@H](CCC(N)=O)C(=O)N[C@@H](CC(C)C)C(N)=O)NC(=O)[C@H](CCC(=O)O)NC(=O)[C@H](CC(=O)O)NC(=O)[C@H](CC(C)C)NC2=O)C(C)C)NC(=O)[C@H](CCCNC(=N)N)NC1=O
- inhibition of Ca2+-independent fusion probability, single vesicle content mixing with airway epithelial SNAREs and Syt2 [5]: ≤ 40%
- inhibition of Ca2+-triggered cumulative fusion probability, single vesicle content mixing with airway epithelial SNAREs and Syt2 [5]: ≤ 70%
